Test system: HeLa cells
Assay type: cell-based, human
Details: MTT, concluding statement

With `Cc1ncc(-c2cc(F)c(O)c(F)c2)cc1-c1cc(F)c(O)c(F)c1` [compound 26] the “toxicity to human cells” value was “not overtly toxic”.
